# Laboratory results as given in paper PMC10866925, “Catalyst-free late-stage functionalization to assemble α-acyloxyenamide electrophiles for selectively profiling conserved lysine residues” (Communications Chemistry, 2024).
# Key:
# [1] = molecular target: EGFR L858R mutant (Homo sapiens, UniProt P00533, L858R); experiment: Z'-LYTE FRET kinase assay, time dependent ([…] at […] min, […] at […] h); also labelling of recombinant protein, LC-MS/MS site mapping, CETSA, competitive pull-down; assay type: biochemical
# [2] = molecular target: T1, CDK1 (Homo sapiens, UniProt P06493); experiment: radiometric kinase assay ([…]-ATP, histone H1); also MS of K33 modification, K33R pull-down/WB, CETSA; assay type: biochemical
# T1 construct: CDK1/cyclinB (h); with cyclin B
# [3] = molecular target: T2, CDK5 (Homo sapiens, UniProt Q00535); experiment: radiometric kinase assay ([…]-ATP, histone H1); also K33R pull-down/WB; assay type: biochemical
# T2 construct: CDK5/p25 (h); with p25
# [4] = molecular target: T3, CDK2 (Homo sapiens, UniProt P24941); experiment: as above; assay type: biochemical
# T3 construct: CDK2/cyclinA (h); with cyclin A
# [5] = molecular target: T4, ATP-dependent 6-phosphofructokinase, platelet type (PFKAP) (Homo sapiens, UniProt Q01813); experiment: pull-down/LC-MS and pull-down/WB in cells, K688R mutant and siRNA knockdown; assay type: cell-based
# T4 construct: gene PFKP; full-length
# T4 sequence (Q01813 1-784): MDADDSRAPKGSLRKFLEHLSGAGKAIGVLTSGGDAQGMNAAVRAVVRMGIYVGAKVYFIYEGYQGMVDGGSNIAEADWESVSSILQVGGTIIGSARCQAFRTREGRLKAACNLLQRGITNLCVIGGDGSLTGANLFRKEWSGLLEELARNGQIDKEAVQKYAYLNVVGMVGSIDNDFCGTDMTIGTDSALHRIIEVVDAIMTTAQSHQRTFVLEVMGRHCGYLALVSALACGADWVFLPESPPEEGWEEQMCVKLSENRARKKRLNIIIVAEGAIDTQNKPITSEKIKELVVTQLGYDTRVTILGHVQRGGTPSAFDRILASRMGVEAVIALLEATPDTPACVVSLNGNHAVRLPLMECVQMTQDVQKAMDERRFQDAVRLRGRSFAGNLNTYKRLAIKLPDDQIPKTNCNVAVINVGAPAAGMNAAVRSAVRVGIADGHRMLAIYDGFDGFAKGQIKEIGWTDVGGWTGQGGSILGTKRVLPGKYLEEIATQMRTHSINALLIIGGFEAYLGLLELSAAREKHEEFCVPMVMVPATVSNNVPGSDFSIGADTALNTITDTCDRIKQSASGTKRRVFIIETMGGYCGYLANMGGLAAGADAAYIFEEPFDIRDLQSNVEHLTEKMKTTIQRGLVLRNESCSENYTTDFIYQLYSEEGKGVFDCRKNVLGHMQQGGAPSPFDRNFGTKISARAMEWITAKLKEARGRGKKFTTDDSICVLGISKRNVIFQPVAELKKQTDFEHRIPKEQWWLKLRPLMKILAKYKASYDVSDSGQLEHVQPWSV
# T1 sequence (P06493 whole entry): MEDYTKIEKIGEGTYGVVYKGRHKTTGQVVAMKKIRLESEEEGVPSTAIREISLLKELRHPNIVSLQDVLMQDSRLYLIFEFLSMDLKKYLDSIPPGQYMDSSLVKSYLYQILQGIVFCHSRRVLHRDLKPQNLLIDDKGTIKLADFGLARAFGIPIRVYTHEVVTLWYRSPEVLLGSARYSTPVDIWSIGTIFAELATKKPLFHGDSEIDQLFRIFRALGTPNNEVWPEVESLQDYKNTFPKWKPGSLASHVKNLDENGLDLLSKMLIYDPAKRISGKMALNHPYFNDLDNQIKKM
# T1 sequence (P14635 whole entry partner): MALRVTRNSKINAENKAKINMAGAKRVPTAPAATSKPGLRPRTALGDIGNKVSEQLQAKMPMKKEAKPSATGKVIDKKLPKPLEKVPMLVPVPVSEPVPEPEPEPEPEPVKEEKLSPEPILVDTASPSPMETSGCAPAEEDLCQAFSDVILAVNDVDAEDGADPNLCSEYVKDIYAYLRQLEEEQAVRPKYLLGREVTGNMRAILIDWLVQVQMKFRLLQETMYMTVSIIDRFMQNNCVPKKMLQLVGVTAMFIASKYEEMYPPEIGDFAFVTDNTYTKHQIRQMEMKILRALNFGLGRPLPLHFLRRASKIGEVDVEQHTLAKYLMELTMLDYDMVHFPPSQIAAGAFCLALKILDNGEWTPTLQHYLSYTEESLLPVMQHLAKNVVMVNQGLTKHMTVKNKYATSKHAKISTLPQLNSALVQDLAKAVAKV
# T2 sequence (Q00535 whole entry): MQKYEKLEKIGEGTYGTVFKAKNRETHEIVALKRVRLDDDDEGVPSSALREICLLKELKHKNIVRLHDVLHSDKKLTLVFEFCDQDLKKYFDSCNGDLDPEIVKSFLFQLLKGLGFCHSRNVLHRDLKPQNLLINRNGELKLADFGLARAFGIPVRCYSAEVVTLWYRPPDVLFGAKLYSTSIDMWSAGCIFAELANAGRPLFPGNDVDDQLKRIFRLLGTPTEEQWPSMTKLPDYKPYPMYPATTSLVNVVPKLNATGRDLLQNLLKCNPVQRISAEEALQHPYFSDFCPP
# T2 sequence (Q15078 99-307 partner limits assumed): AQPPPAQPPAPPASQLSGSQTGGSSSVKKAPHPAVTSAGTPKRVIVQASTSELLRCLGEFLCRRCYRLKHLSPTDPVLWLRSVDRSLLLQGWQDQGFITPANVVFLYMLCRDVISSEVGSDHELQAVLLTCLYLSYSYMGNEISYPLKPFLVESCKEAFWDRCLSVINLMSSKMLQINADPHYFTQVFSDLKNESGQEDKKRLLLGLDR
# Sequence of EGFR L858R mutant (P00533 669-1210 L858R limits assumed): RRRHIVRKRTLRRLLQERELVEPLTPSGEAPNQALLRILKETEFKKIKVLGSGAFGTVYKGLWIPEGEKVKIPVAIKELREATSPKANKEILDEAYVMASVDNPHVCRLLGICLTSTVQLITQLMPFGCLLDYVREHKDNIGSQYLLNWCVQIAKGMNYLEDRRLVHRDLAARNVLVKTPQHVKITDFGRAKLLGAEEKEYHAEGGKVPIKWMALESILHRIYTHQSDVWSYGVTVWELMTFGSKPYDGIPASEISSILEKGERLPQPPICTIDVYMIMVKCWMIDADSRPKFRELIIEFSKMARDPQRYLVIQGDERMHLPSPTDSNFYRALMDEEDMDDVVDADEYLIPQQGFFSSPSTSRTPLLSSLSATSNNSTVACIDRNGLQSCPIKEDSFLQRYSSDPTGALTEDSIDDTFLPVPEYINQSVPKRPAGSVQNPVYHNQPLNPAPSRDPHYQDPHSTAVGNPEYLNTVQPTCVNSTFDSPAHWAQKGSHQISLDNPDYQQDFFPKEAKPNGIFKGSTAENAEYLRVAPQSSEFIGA
compound,measurement,setting,value
C#Cc1cccc(Nc2ncnc3cc(OC)c(OCCCCC(=O)OC(=C)N(C)S(=O)(=O)c4ccc(C)cc4)cc23)c1 [E3],IC50,[1],1.3 nM
C#CCNC(=O)c1cc(Nc2cc(C3CC3)[nH]n2)nc(N2CCN(C(=O)CCC(=O)OC(=C)N(C)S(=O)(=O)c3ccc(C)cc3)CC2)n1 [X1],IC50,[2],2000 to 6000 nM
same,IC50,[3],2000 to 6000 nM
same,IC50,[4],2000 to 6000 nM
C#Cc1ccc(C(=O)OC(=C)N(C)S(=O)(=O)c2ccc(C)cc2)cc1 [A1],"pull-down/LC-MS and pull-down/WB in cells, K688R mutant and siRNA knockdown",[5],Mutation of PFKAP K688 in the protein binding pocket to K688R severely affects the probe labeling
